In patent US12691046B2, “Ester compositions” (Evonik Operations GmbH, priority 2021, dated 2026):

What was measured:
[1] = Mixtures of pure pigments with cosmetic oil: increase in viscosity (rheometer); type: physicochemical; settings: for dispersibility of pure pigments in the oil: judged from the increase in viscosity; for Increase in viscosity, Carbon Black (CI77266, UniPure Black LC 902, Sensient): pigment:oil 15:85 w/w; for Increase in viscosity, Carbon Black (CI77266, UniPure Black LC 902, Sensient) / Increase in viscosity, (Yellow) Iron Oxide (CI 77492); Dimethicone (BYO-DS4, KOBO) / Increase in viscosity, (Black) Iron Oxides (CI 77499); Dimethicone (BYO-DS3, KOBO) / Increase in viscosity, Titanium Dioxide (CI 77891); Dimethicone (DHL-TRI-77891, US Cosmetics) / Increase in viscosity, (Red) Iron Oxides (CI 77491); Dimethicone (BYO-DS3, KOBO): rheometer MCR 302, 20° C., 1/100 sec, triplicate averaged; for Increase in viscosity, (Yellow) Iron Oxide (CI 77492); Dimethicone (BYO-DS4, KOBO): pigment:oil 40:60 w/w; for Increase in viscosity, (Black) Iron Oxides (CI 77499); Dimethicone (BYO-DS3, KOBO) / Increase in viscosity, Titanium Dioxide (CI 77891); Dimethicone (DHL-TRI-77891, US Cosmetics): pigment:oil 60:40 w/w; for Increase in viscosity, (Red) Iron Oxides (CI 77491); Dimethicone (BYO-DS3, KOBO): pigment:oil 65:35 w/w
Method: Here too, the pigment wetting properties of cosmetic oils can be determined by measuring the viscosity of the pure oil, in comparison with the viscosity of the oil after dispersing a defined amount of the pure pigment. The smaller the increase in viscosity thus determined, the better the property of an oil in wetting pigments on the surface and accordingly in dispersing.
The mixture is then stirred for 3 min at 3,500 rpm's and placed onto rheometer for measurement (Anton Paar Modular Compact Rheometer model MCR 302, 20° C., 1/100 sec). The viscosities of the neat cosmetics oils are also measured. Pigment mixtures and neat cosmetic oils are run in triplicate and the results averaged.
The increase in viscosity comparing the neat cosmetic oil and the pigment/cosmetic oil mixture is represented below (given in mPa·s): […]

[2] = Pigment/powder dispersion: increase in viscosity of the oil (Brookfield); type: physicochemical; settings: for Increase in viscosity: 60% emollient + 40% pigment/powder mixture (Table 2), Brookfield, spindle 5, 50 rpm at 20° C.; for dispersibility of the pigment/powder mixture in the oil: judged from the increase in viscosity
From the text: Alkyl carboxylates according to the invention can help in the wetting of hydrophobized pigments and accordingly can be widely used in coloured cosmetics. The pigment wetting properties of cosmetic oils can be determined by measuring the viscosity of the pure oil, in comparison with the viscosity of the oil after dispersing a defined amount of pigments. The smaller the increase in viscosity thus determined, the better the property of an oil in wetting pigments on the surface and accordingly in dispersing.
The viscosities of the oils before addition of the pigment/powder mixture are determined using a Brookfield viscometer, spindle 5, 50 rpm at 20° C. After dispersion of the pigment/powder mixture, the viscosity is again determined in an identical way.

| Structure (SMILES) | dispersibility of pure pigments in the oil [1] | Increase in viscosity, Carbon Black (CI77266, UniPure Black LC 902, Sensient) [1] | Increase in viscosity, (Yellow) Iron Oxide (CI 77492); Dimethicone (BYO-DS4, KOBO) [1] | Increase in viscosity, (Black) Iron Oxides (CI 77499); Dimethicone (BYO-DS3, KOBO) [1] | Increase in viscosity, Titanium Dioxide (CI 77891); Dimethicone (DHL-TRI-77891, US Cosmetics) [1] | Increase in viscosity, (Red) Iron Oxides (CI 77491); Dimethicone (BYO-DS3, KOBO) [1] | Increase in viscosity [2] | dispersibility of the pigment/powder mixture in the oil [2] |
| --- | --- | --- | --- | --- | --- | --- | --- | --- |
| CCCCCCCCCCCCCCCCOC(=O)C(CC)CCCC (stereo not shown) [Cetyl Ethylhexanoate] | improved | 625 mPa·s | 2357 mPa·s | 8718 mPa·s | 807 mPa·s | 5393 mPa·s | 2520 mPa · s | improved |
| CCCCCCCCCCCC(=O)OCCC(C)C [Dermofeel ® sensolv, Isoamyl Laurate] | improved | 223 mPa·s | 195 mPa·s | 458 mPa·s | 121 mPa·s | 2238 mPa·s | 1820 mPa · s | improved |
